Data from ChEMBL document CHEMBL3301550, “MMV Mararia Box screening against P. falciparum asexual stage parasites under hypoxia and bicarbonate modified culture conditions”.

How the values were obtained:
Assay type in all cases: functional, organism-based
Details in all cases: 3D7
Plasmodium falciparum [1] = assay: MMV: 3H-Hyoxanthine uptake assay; 5% O2, 5% CO2 in N2.
Plasmodium falciparum [2] = assay: MMV: 3H-Hyoxanthine uptake assay; RPMI 1640 (Invitrogen cat#11875-093) with Sodium Bicarbonate (NaHCO3) […].
Plasmodium falciparum [3] = assay: MMV: Modified 3H-Hyoxanthine uptake assay; RPMI 1640 (Invitrogen cat#23400-013) without Sodium Bicarbonate (NaHCO3).
Plasmodium falciparum [4] = assay: MMV: Modified 3H-Hyoxanthine uptake assay; 1% O2, 5% CO2 in N2.

SMILES	IC50 (Plasmodium falciparum [1]) [µM]	IC50 (Plasmodium falciparum [2]) [µM]	IC50 (Plasmodium falciparum [3]) [µM]	IC50 (Plasmodium falciparum [4]) [µM]
CN1CCN(c2ccc(Nc3c4ccccc4nc4ccccc34)cc2)CC1	0.117	0.098	0.269	0.076
CN(C)CCCNc1c2ccccc2nc2ccccc12	0.36	0.19	0.594	0.059
CCN1CCCC1CNc1[nH]cnc2c3cc(Cl)ccc3nc1-2 (configuration not stated)	> 1	> 1	> 1	> 1
COc1ccc(-c2c(C)nn3c(N)c(C#N)cnc23)cc1OC		0.33	0.457	
CSC1=NC(=Nc2c(C)cccc2C)C2(CCC(C(C)(C)C)CC2)N1c1ccc(Cl)cc1 (configuration not stated)	> 1	> 1	> 1	> 1
Cc1cc(C)cc(Nc2cc(C)nc3nc(C(F)(F)F)nn23)c1	0.081	0.059	0.132	0.047
O=C(NCC(c1ccsc1)N1CCCCCC1)c1ccc(C(F)(F)F)cc1 (configuration not stated)		0.425	1.12	
Cc1ccc(-c2cc3c(SCC(=O)Nc4cc(C(F)(F)F)ccc4Cl)nccn3n2)cc1	> 0.5	> 0.5	> 0.5	> 0.5
CCN(CC)CCNc1ncnc2c1[nH]c1ccc(Cl)cc12	0.314	0.326	0.851	0.266
CCOC(=O)c1cnc2ccc(CC)cc2c1O	> 1	0.301	0.408	> 1
Cc1ccc(-c2cc3c(nn2)-c2ccccc2C3=O)cc1	> 0.5	> 0.5	> 0.5	> 0.5
CCN(CC)CCNc1ccnc2cc(Cl)ccc12	0.04	0.046	0.094	0.018
Cc1ccc(Nc2nc(-c3ccccn3)cs2)cc1	> 1	> 1	> 1	> 1
CCCCCC(=O)N1c2ccccc2N=C2CC(c3ccc(OC)c(OC)c3)CC(O)=C2C1c1ccc(C(F)(F)F)cc1 (configuration not stated)		0.129	0.144	
Cc1cc(NCCN2CCCCC2)c2ccc3ccccc3c2n1	0.489	0.127	0.219	0.132
COc1ccc(-n2ccnc2SCC(=O)Nc2cc(C)ccc2C)c(OC)c1	0.793	> 1	> 1	0.431
CCN1CCN(Cc2ccc(NC(=O)c3cc4ccc5cccnc5c4[nH]3)cc2)CC1	0.422	0.582	0.674	0.497
COc1ccc(-c2nc(NC(=O)CS(=O)(=O)c3ccc(F)cc3)sc2C)cc1		0.192	0.464	
O=C(O)C1Cc2c([nH]c3ccccc23)C(c2ccc(Cl)cc2Cl)N1 (configuration not stated)	> 1	> 1	> 1	> 1
Cc1ccc(N2C(=O)C3C(C2=O)C2(c4ccccc4)C(=O)C3(c3ccccc3)C(c3ccccc3)=C2c2ccccc2)cc1 (configuration not stated)	> 1	> 1	> 1	> 1
CCc1c(C)c(=N)c2ccccc2n1C	0.324	0.425	0.784	0.338
COc1cccc(NC(=O)[C@H](C(C)C)n2c(=O)[nH]c3ccccc3c2=O)c1	0.213	0.199	0.349	0.156

SMILES	IC50 (Plasmodium falciparum [1]) [µM]	IC50 (Plasmodium falciparum [2]) [µM]	IC50 (Plasmodium falciparum [3]) [µM]	IC50 (Plasmodium falciparum [4]) [µM]
CCOC(=O)c1cn(CC)c2cc(N(C)CCc3ccc(OC)c(OC)c3)c(F)cc2c1=O	0.345			0.085
CCC(c1ccccc1)c1nn2c(-c3cccs3)nnc2s1 (configuration not stated)	0.415	0.15	0.181	0.066
CCOc1cc2c(cc1OCC)C(c1cc(OC)c(O)cc1Cl)NCC2 (configuration not stated)	0.374	0.746	0.982	0.568
CC1CN(C(=O)c2sc3ccccc3c2Cl)CC(C)O1 (configuration not stated)	0.079	0.073	0.071	0.1
CN(C)c1ccc(C=Cc2nc(=O)c3ccccc3o2)cc1	> 0.5	0.366	0.295	> 0.5
COc1ccc(C2=C(c3ccc(OC)cc3)C3(c4ccccc4)C(=O)C2(c2ccccc2)C2C(=O)N(c4ccc(C)cc4)C(=O)C23)cc1 (configuration not stated)	> 1	> 1	> 1	> 1
CCOC(=O)c1c(NC(=O)c2ccccc2)sc2c(O)c(CN(CC)CC)ccc12	> 1			> 1
CCOC(=O)C1=C(c2ccccc2)N=c2sc(=Cc3cc(C)n(-c4ccc(F)cc4)c3C)c(=O)n2C1c1cccc(OC)c1OC (configuration not stated)	> 1	> 1	> 1	> 1
CCC1(C)CC(CCNCc2ccccc2O)(c2ccc(C)cc2)CCO1 (configuration not stated)	0.54	0.266	0.277	0.236
COc1cccc(C=Cc2nc(=O)c3ccccc3o2)c1OC	> 0.5	> 0.5	> 0.5	> 0.5
CCCN(CCC)CC(O)COc1ccccc1C(=O)Nc1ccccc1 (configuration not stated)	0.281	0.315	0.347	0.169
Fc1ccc2[nH]c3c(NCCCN4CCOCC4)ncnc3c2c1	> 1	> 1	> 1	> 1
COc1ccc(C(=O)Nc2nonc2-c2ccc(OC)c(OC)c2)cc1Cl	> 1	> 1	> 1	> 1
COc1ccc(C=C2SC(=N)N(c3ccccc3OC)C2=O)cc1	0.531		0.167	
CCOC(=O)c1c(C)n(-c2ccc(Cl)cc2)c2ccc(OC(=O)C=Cc3ccccc3)cc12	> 1	> 1	> 1	> 1
COc1ccc2c(c1)OC(O)(C(F)(F)C(F)(F)F)CC2=O (configuration not stated)	0.443	0.246	0.204	0.702
C=CC12CCN(CC1)C(C(O)c1ccnc3ccc(OC)cc13)C2 (configuration not stated)		0.021	0.04	
Cc1ccc(-c2cc3nc4c(c(O)n3n2)CCCC4)cc1	> 1	0.889	1.26	> 1
Cc1cccc(Nc2nc(N)c3ccccc3n2)c1	0.299	0.283	0.332	0.23
CCn1c(CN2CCN(Cc3ccccc3)CC2)nc2cc(NC(=O)c3cccs3)ccc21		0.174	0.186	
c1ccc2cc3c(Nc4ccc(N5CCOCC5)cc4)ccnc3cc2c1	> 1	1.44	> 1	> 1
Cc1cc(C)c2c(c1)OCN(Cc1ccccc1Cl)C2		0.276	0.362	

SMILES	IC50 (Plasmodium falciparum [1]) [µM]	IC50 (Plasmodium falciparum [2]) [µM]	IC50 (Plasmodium falciparum [3]) [µM]	IC50 (Plasmodium falciparum [4]) [µM]
COc1cc(OC)c(N(C)C(=O)c2cc3c(s2)-c2ccccc2S(=O)(=O)C3)cc1Cl	> 0.5	> 0.5	> 0.5	> 0.5
CCCc1cc(O)c2c3c(c(=O)oc2c1)CN(C)CC3	> 1			> 1
Cc1cc(NC(=O)C2c3ccccc3C(=O)N(CC(C)C)C2c2cccs2)no1 (configuration not stated)	0.3	0.213	0.385	0.183
Oc1ccccc1CNCC12CC3CC(CC(C3)C1)C2	0.136	0.104	0.121	0.063
CNCCCNc1ccnc2cc(Cl)ccc12	0.044	0.04	0.155	0.023
COc1ccccc1CNC(=O)CCn1c(=O)[nH]c2ccsc2c1=O		0.367	0.432	
COc1ccc(Br)cc1C1Nc2ccc3ccccc3c2C2=C1C(=O)CC(c1ccccc1)C2 (configuration not stated)	> 1	0.783	0.71	> 1
Cc1cc(C=C2SC(=Nc3ccccc3)N(C3CCCC3)C2=O)c(C)n1-c1ccc(Cl)cc1	> 1	> 1	> 1	> 1
CCc1ccc(Nc2cc(C)c3ccc(O)cc3n2)cc1	0.165	0.171	0.127	0.15
COc1ccc2c(=O)cc(C(Cl)(Cl)Cl)oc2c1	> 1	0.942	0.789	> 1
COc1ccc(-c2nc3cc(Cc4ccc5[nH]c(-c6ccc(OC)cc6)nc5c4)ccc3[nH]2)cc1	> 1	> 1	> 1	> 1
Cc1cc(Nc2ccc(Cl)cc2)n2nc(C(F)(F)F)nc2n1	0.349	0.112	0.169	0.07
COc1ccc(C(C)=O)cc1N1C(=O)C2C(C1=O)C1(c3ccccc3)C(=O)C2(c2ccccc2)C(c2ccc(C)cc2)=C1c1ccc(C)cc1 (configuration not stated)	> 1	> 1	> 1	> 1
CCCCCCOC(=O)C1=C(C)NC(=O)NC1c1ccccc1F (configuration not stated)	> 1	> 1	> 1	> 1
Cc1ccc(N2C3c4ccccc4N(S(=O)(=O)c4ccc(C)cc4)C2c2ccccc2N3S(=O)(=O)c2ccc(C)cc2)cc1	> 0.5	> 0.5	> 0.5	> 0.5
CCCc1c(CC)c(=N)c2ccccc2n1C	0.397	0.211	0.355	0.065
Cc1ccc(Nc2nc(NCCO)c3ccccc3n2)cc1C	0.238	0.186	0.325	0.219
CCOC(=O)c1cnc2c(C)cc(C)cc2c1Nc1ccc(OC)c(OC)c1	> 1	> 2	> 2	> 1
COc1ccc(NC(=O)C2c3ccccc3C(=O)N(CC(C)C)C2c2cccs2)cc1 (configuration not stated)	0.343	0.262	0.37	0.211
c1ccc(Cn2c(N=Nc3c(Nc4ccccc4)ccc4ccccc34)nc3ccccc32)cc1	> 0.5	0.125	0.064	> 0.5
